Paper PMC9756503, “Pharmacodynamic properties for inhibition of cAMP- and cGMP elimination by pentoxifylline remain unaltered in vitro during hypothermia” (Scandinavian Journal of Trauma, Resuscitation and Emergency …, 2022)
Read-outs that look alike come from different tables or passages of the source.

Key:
[1] = set-up: method as in PMID 26870389; conditions: review on cardiovascular effects; cited from earlier work
Recombinant human PDE3 = assay: Inhibition of PDE3-mediated enzymatic breakdown of cAMP; assay type: biochemical; conditions: for Ki: Cheng-Prusoff; for [PDE3-inhibition]/[PDE5-inhibition] / [PDE3-inhibition]/[cAMP-efflux inhibition]: ratio between IC50-values
Description: (§1) Assessment of pentoxifyllines ability to inhibit the phosphodiesterase enzymes were performed by incubating cAMP or cGMP with seven different concentrations of pentoxifylline. The concentrations were increasing by a factor of 10 ranging from 1.00 nM to 1.00 mM. For PDE3 assessment, the incubation solution included cAMP and for PDE5 assessment it included cGMP. Experiments were performed in triplicates each day at three separate days - in total 9 parallels. The reaction was started by adding either a solution containing 0.016 units/µg protein of PDE3 (Abcam, Cambridge UK), or 0.022 units/µg protein of PDE5 (Sigma-Aldrich, St. Louis, USA), to the Eppendorf tubes. Control samples were free of drug and was either with or without PDE3 or PDE5. This was done to assure that only the relevant PDE was responsible for breakdown of the cyclic nucleotide, as no other enzyme nor cellular material was added to the incubations. The incubation time was 30 min. Reaction was stopped by adding methanol to the tubes. Internal standard of cGMP/GMP or cAMP/AMP (Sigma-Aldrich, St. Louis, MO, USA, Germany and Toronto Research Chemicals Inc., Ontario, Canada) were added to each sample. 5 samples contained only known concentrations of cGMP/GMP or cAMP/AMP and served as calibrators. Samples were analyzed for cGMP/GMP and cAMP/AMP content, using MS [14, 15].
Quantification of cAMP/AMP, cGMP/GMP and pentoxifylline in PDE- and intracellular access experiments were performed with liquid chromatography tandem mass spectrometry (LC–MS/MS). Preparation of samples for LC–MS/MS-analysis is described in paragraphs above.
(§2) Analysis and graph production were performed in SigmaPlot 14.0 (Systat Software, San Jose, CA, USA.). Ability to inhibit the different elimination pathways, enzymes and efflux pumps, were calculated as IC50-values, as according to Chou. Ki-values were obtained by using the methods described by Cheng and Prustoff. Measurement of intracellular concentrations of drugs were adjusted for protein concentrations in each sample. The incubation concentrations were also adjusted for protein concentration in each sample to evaluate the access in percentage. […] The same analysis was performed for intracellular concentrations of pentoxifylline during hypothermia compared to baseline (37 °C). When data was not normally distributed ANOVA on ranks and Dunn`s post hoc test was performed. Data are presented as mean ± standard error of the mean (SEM). p-values were considered significant when < 0.05.

ABCC5 = target: T1, ABCC5 (Homo sapiens, UniProt O15440); assay: Inhibition of [3H]-cGMP efflux in erythrocyte inside-out vesicles; assay type: biochemical; conditions: for Ki: Cheng-Prusoff
T1 construct: inside-out vesicles (IOV)s where erythrocytes from healthy, human donors were sampled; endogenous in cells; host or cells: inside-out vesicles from erythrocytes of healthy human donors
T1 sequence (O15440 whole entry): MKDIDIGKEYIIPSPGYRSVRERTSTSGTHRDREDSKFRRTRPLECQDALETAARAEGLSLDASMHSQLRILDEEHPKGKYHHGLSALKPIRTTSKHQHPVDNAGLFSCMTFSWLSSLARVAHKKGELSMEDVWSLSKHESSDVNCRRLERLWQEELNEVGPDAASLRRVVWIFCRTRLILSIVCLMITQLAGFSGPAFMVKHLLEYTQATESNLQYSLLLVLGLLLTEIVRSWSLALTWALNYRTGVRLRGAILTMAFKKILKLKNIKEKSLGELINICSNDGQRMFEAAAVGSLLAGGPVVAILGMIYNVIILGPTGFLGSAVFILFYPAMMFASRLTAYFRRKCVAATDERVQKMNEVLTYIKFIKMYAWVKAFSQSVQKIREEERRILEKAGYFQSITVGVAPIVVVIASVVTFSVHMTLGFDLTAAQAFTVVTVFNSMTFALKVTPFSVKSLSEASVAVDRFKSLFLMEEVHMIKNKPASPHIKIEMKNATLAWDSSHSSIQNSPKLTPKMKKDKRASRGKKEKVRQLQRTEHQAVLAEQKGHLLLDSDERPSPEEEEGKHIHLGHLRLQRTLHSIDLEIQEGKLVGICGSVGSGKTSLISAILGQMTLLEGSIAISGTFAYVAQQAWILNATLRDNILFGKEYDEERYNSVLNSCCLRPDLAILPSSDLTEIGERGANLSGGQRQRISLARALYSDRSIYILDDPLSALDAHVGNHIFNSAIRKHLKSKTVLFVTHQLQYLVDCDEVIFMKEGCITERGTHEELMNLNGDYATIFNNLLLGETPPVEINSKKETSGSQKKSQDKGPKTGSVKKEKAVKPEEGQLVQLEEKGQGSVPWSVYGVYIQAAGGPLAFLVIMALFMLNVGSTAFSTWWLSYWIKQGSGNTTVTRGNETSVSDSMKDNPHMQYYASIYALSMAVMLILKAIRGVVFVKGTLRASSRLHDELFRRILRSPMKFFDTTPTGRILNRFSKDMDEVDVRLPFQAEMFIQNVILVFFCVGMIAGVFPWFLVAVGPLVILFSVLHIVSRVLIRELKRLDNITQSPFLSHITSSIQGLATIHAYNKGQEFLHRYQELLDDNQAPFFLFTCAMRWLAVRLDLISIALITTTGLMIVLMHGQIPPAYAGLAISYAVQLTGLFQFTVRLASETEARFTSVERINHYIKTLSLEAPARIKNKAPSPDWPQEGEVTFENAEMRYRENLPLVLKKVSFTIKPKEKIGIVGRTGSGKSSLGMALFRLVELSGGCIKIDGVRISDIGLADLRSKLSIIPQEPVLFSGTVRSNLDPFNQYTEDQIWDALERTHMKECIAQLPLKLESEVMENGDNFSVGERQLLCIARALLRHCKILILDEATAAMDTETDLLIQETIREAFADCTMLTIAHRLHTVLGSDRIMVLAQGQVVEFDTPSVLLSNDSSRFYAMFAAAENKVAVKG
Description: (§3) Cellular efflux was estimated with inside-out vesicles (IOV)s where erythrocytes from healthy, human donors were sampled. Donors were pre-screened and only admitted as donors by Blodbanken UNN (Department of Immunohematology and Transfusion Medicine, University Hospital of North Norway) if they were healthy. The erythrocytes were separated from plasma by centrifugation and washed. Inside-out vesicles were prepared according to Orvoll et al. with minor modifications. Percentage IOV was verified using acetylcholinesterase accessibility test. Batches of IOVs used in the parallels were made 8 times, including blood from a total of 35 healthy donors.
(§4) IOVs were then incubated with or without 2 mM ATP and 7 different concentrations of pentoxifylline increasing by a factor of 10 ranging from 1.00 nM to 1.00 mM. The incubation solutions also included radioactive labeled [^3H]-cGMP or [^3H]-cAMP (Perkin Elmer, Boston, MA, USA), at a concentration of respectively 2 µM and 20 µM. [^3H]-cAMP was used to assess ABCC4-inhibition and [^3H]-cGMP for ABCC5-inhibition. The assays were performed in triplicates at 3 different days: In total 9 parallels were performed to calculate results for each concentration of pentoxifylline at all temperatures. Incubation time of 60 min was chosen to ensure sufficient quality of the samples for each parallel. The transport was stopped by adding ice cold buffer. The IOVs were then filtered through a nitrocellulose membrane (Bio-Rad Laboratories, Feldkirchen Germany), and the membrane was dried. The dried membranes were later added scintillation fluid and radioactivity was measured using a Packard TopCount NXT (Packard, Downers Grove, IL, USA).
as §2

ABCC4 = target: T2, ABCC4 (Homo sapiens, UniProt O15439); assay: biochemical; assay type: biochemical; conditions: for Ki: Cheng-Prusoff, read-out: Ki for inhibition of cAMP-efflux; for [cAMP-efflux inhibition]/[cGMP-efflux inhibition]: ratio between IC50-values; for IC50: read-out: IC50 for inhibition of cAMP-efflux
T2 construct: inside-out vesicles (IOV)s where erythrocytes from healthy, human donors were sampled; endogenous in cells; host or cells: inside-out vesicles from erythrocytes of healthy human donors
T2 sequence (O15439 1-1325): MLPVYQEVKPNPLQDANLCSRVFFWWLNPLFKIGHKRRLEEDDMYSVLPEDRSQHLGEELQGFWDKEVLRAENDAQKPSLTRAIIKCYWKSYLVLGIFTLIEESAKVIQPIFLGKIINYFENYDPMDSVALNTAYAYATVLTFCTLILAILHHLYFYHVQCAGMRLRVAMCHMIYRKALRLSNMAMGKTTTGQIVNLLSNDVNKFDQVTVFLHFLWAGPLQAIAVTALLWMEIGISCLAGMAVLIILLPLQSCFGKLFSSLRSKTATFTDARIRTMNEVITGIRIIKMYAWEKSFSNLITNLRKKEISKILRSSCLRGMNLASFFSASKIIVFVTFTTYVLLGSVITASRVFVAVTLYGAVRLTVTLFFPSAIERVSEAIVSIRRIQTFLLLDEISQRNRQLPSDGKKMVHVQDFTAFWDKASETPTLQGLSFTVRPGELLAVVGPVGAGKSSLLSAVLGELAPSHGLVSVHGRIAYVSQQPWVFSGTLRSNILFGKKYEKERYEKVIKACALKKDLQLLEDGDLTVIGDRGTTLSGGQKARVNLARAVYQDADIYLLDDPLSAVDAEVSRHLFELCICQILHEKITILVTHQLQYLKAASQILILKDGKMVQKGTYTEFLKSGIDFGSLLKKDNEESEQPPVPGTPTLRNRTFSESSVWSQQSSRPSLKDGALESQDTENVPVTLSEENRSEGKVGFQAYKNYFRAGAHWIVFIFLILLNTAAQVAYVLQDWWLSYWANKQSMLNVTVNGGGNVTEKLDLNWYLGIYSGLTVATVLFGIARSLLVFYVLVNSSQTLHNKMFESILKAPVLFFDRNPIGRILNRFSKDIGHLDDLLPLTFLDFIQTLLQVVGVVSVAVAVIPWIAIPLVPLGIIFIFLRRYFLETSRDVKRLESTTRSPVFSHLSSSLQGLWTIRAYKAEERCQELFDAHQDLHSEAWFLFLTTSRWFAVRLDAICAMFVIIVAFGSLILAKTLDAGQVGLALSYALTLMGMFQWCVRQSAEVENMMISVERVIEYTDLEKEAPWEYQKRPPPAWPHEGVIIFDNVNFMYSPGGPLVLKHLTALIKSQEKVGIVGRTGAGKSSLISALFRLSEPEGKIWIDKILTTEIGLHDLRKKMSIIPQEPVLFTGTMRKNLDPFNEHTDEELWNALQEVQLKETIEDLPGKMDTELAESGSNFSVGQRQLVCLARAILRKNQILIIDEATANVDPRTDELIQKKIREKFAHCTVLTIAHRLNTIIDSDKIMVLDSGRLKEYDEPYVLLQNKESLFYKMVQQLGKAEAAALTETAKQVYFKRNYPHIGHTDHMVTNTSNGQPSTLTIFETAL
Description: as §3, §4, §2

Recombinant human PDE5 = target: T3, Recombinant human PDE5 (Homo sapiens, UniProt O76074); assay: Inhibition of PDE5-mediated enzymatic breakdown of cGMP; assay type: biochemical; conditions: for Ki: Cheng-Prusoff; for [PDE5-inhibition]/[cGMP-efflux inhibition]: ratio between IC50-values
T3 construct: purchased Sigma-Aldrich
Description: as §1
Quantification of cAMP/AMP, cGMP/GMP and pentoxifylline in PDE- and intracellular access experiments were performed with liquid chromatography tandem mass spectrometry (LC–MS/MS). Preparation of samples for LC–MS/MS-analysis is described in paragraphs above. […] For GMP the method was linear from 2 nM to at least 2000 nM (r^2 > 0.998), and 10 nM to at least 5000 nM for pentoxifylline (r^2 > 0.998).
Analysis and graph production were performed in SigmaPlot 14.0 (Systat Software, San Jose, CA, USA.). Ability to inhibit the different elimination pathways, enzymes and efflux pumps, were calculated as IC50-values, as according to Chou. Ki-values were obtained by using the methods described by Cheng and Prustoff. Measurement of intracellular concentrations of drugs were adjusted for protein concentrations in each sample. The incubation concentrations were also adjusted for protein concentration in each sample to evaluate the access in percentage. Analysis of variance (ANOVA) with Holm-Sidak multiple comparison post-hoc test was performed to evaluate changes in IC50-values compared to baseline (37 °C) for all elimination pathways. The same analysis was performed for intracellular concentrations of pentoxifylline during hypothermia compared to baseline (37 °C). When data was not normally distributed ANOVA on ranks and Dunn`s post hoc test was performed. Data are presented as mean ± standard error of the mean (SEM). p-values were considered significant when < 0.05.

Structure (SMILES): CC(=O)CCCCn1c(=O)c2c(ncn2C)n(C)c1=O [pentoxifylline]
- clinical serum concentrations [1]: 1 to 10 µM
- IC50 (Recombinant human PDE3; 20 °C): 31 ± 9.47 µM
- Ki (Recombinant human PDE3; 20 °C): 1420 ± 434 nM
- [PDE3-inhibition]/[PDE5-inhibition] (Recombinant human PDE3; 20 °C): 0.788
- IC50 (Recombinant human PDE3; 24 °C): 29.2 ± 4.72 µM
- Ki (Recombinant human PDE3; 24 °C): 1340 ± 216 nM
- [PDE3-inhibition]/[PDE5-inhibition] (Recombinant human PDE3; 24 °C): 1.16
- IC50 (Recombinant human PDE3; 28 °C): 22.4 ± 6.36 µM
- Ki (Recombinant human PDE3; 28 °C): 1020 ± 291 nM
- [PDE3-inhibition]/[PDE5-inhibition] (Recombinant human PDE3; 28 °C): 0.920
- [PDE3-inhibition]/[cAMP-efflux inhibition] (Recombinant human PDE3; 28 °C): 11.6
- IC50 (Recombinant human PDE3; 32 °C): 26.7 ± 4.7 µM
- Ki (Recombinant human PDE3; 32 °C): 1220 ± 215 nM
- [PDE3-inhibition]/[PDE5-inhibition] (Recombinant human PDE3; 32 °C): 1.72
- [PDE3-inhibition]/[cAMP-efflux inhibition] (Recombinant human PDE3; 32 °C): 13.3
- IC50 (Recombinant human PDE3; 34 °C): 14.2 ± 1.51 µM
- Ki (Recombinant human PDE3; 34 °C): 651 ± 69 nM
- [PDE3-inhibition]/[PDE5-inhibition] (Recombinant human PDE3; 34 °C): 1.33
- [PDE3-inhibition]/[cAMP-efflux inhibition] (Recombinant human PDE3; 34 °C): 3.94
- IC50 (Recombinant human PDE3; 37 °C): 15.8 ± 4.25 µM
- Ki (Recombinant human PDE3; 37 °C): 723 ± 195 nM
- [PDE3-inhibition]/[PDE5-inhibition] (Recombinant human PDE3; 37 °C): 2.05
- [PDE3-inhibition]/[cAMP-efflux inhibition] (Recombinant human PDE3; 37 °C): 11.9
- IC50 (ABCC5; 20 °C): 388 ± 70 nM
- IC50 (ABCC5; 24 °C): 502 ± 315 nM
- Ki (ABCC5; 24 °C): 320 ± 183 nM
- IC50 (ABCC5; 28 °C): 851 ± 281 nM
- Ki (ABCC5; 28 °C): 481 ± 159 nM
- IC50 (ABCC5; 32 °C): 724 ± 206 nM
- Ki (ABCC5; 32 °C): 409 ± 116 nM
- IC50 (ABCC5; 34 °C): 893 ± 401 nM
- Ki (ABCC5; 34 °C): 505 ± 226 nM
- IC50 (ABCC5; 37 °C): 531 ± 338 nM
- Ki (ABCC5; 37 °C): 300 ± 191 nM
- Ki (ABCC4; 28 °C): 918 ± 465 nM
- [cAMP-efflux inhibition]/[cGMP-efflux inhibition] (ABCC4; 28 °C): 2.27
- IC50 (ABCC4; 28 °C): 1930 ± 1110 nM
- Ki (ABCC4; 32 °C): 1160 ± 526 nM
- [cAMP-efflux inhibition]/[cGMP-efflux inhibition] (ABCC4; 32 °C): 2.78
- IC50 (ABCC4; 32 °C): 2010 ± 819 nM
- Ki (ABCC4; 34 °C): 2030 ± 1460 nM
- [cAMP-efflux inhibition]/[cGMP-efflux inhibition] (ABCC4; 34 °C): 4.04
- IC50 (ABCC4; 34 °C): 3610 ± 2590 nM
- Ki (ABCC4; 37 °C): 805 ± 343 nM
- [cAMP-efflux inhibition]/[cGMP-efflux inhibition] (ABCC4; 37 °C): 2.50
- IC50 (ABCC4; 37 °C): 1330 ± 566 nM
- Inhibition of cAMP-efflux (ABCC4-activity) (ABCC4; temperatures below 28 °C (24 and 20 °C)): no inhibition
- IC50 (Recombinant human PDE5; 20 °C): 39.4 ± 10.9 µM
- Ki (Recombinant human PDE5; 20 °C): 10 ± 2.78 µM
- [PDE5-inhibition]/[cGMP-efflux inhibition] (Recombinant human PDE5; 20 °C): 102
- IC50 (Recombinant human PDE5; 24 °C): 25.2 ± 6.57 µM
- Ki (Recombinant human PDE5; 24 °C): 6.4 ± 1.67 µM
- [PDE5-inhibition]/[cGMP-efflux inhibition] (Recombinant human PDE5; 24 °C): 50.2
- IC50 (Recombinant human PDE5; 28 °C): 24.3 ± 5.58 µM
- Ki (Recombinant human PDE5; 28 °C): 6.17 ± 1.42 µM
- [PDE5-inhibition]/[cGMP-efflux inhibition] (Recombinant human PDE5; 28 °C): 28.6
- IC50 (Recombinant human PDE5; 32 °C): 15.5 ± 0.753 µM
- Ki (Recombinant human PDE5; 32 °C): 3.94 ± 0.191 µM
- [PDE5-inhibition]/[cGMP-efflux inhibition] (Recombinant human PDE5; 32 °C): 21.4
- IC50 (Recombinant human PDE5; 34 °C): 10.7 ± 1.92 µM
- Ki (Recombinant human PDE5; 34 °C): 2.71 ± 0.487 µM
- [PDE5-inhibition]/[cGMP-efflux inhibition] (Recombinant human PDE5; 34 °C): 12.0
- IC50 (Recombinant human PDE5; 37 °C): 7.7 ± 0.265 µM
- Ki (Recombinant human PDE5; 37 °C): 1.95 ± 0.067 µM
- [PDE5-inhibition]/[cGMP-efflux inhibition] (Recombinant human PDE5; 37 °C): 14.5
